Results as given in patent publication US10782295B2, “Cysteine-reactive ligand discovery in proteomes” (THE SCRIPPS RESEARCH INSTITUTE, priority 2013, dated 2020).

Target: T1, MMS19 (Homo sapiens, UniProt Q96T76)
T1 construct: directly in native proteomes; endogenous in cells; host or cells: MDA-MB-231
T1 sequence (Q96T76 1-1030): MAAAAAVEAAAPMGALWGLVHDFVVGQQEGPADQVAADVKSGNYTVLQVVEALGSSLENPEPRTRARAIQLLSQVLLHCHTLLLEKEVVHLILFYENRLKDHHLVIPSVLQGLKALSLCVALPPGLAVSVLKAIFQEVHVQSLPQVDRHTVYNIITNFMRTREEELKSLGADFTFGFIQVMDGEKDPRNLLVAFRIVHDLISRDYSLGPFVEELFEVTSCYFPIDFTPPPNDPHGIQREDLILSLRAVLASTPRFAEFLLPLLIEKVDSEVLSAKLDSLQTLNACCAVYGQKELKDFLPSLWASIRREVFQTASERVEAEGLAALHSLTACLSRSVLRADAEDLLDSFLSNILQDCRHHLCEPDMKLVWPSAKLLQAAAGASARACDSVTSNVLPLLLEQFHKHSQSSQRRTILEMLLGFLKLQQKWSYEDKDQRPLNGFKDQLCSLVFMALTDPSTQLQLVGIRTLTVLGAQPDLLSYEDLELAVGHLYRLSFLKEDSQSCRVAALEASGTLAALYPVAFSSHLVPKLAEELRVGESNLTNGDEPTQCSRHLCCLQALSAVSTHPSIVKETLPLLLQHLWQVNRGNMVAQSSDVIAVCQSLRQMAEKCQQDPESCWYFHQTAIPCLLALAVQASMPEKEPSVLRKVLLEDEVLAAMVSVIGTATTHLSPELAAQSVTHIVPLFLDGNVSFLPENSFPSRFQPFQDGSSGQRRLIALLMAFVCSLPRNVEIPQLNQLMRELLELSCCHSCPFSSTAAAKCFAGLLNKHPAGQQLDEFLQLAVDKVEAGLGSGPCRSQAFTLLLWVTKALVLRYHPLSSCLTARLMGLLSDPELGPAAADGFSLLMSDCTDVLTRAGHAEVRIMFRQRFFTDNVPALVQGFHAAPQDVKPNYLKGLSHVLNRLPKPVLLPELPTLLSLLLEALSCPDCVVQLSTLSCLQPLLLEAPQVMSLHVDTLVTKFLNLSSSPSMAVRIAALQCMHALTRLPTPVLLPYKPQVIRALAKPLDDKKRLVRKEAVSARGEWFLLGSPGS
Assay: competitive isoTOP-ABPP, MDA-MB-231 soluble proteome
Format: binding
Details: 60 min; for R value (isoTOP-ABPP ratio heavy/light) for IA-labeled cysteine of MMS19: 100 μM LDE, peptide LMGLLSDPELGPAAADGFSLLMSDC*TDVLTR

| SMILES | R value (isoTOP-ABPP ratio heavy/light) for IA-labeled cysteine of MMS19 | blockade of IA-probe labeling of Cys848 of MMS19 (100 μM) |
| --- | --- | --- |
| CCCCC/C=C/C=C1/C(=O)C=C[C@@H]1C/C=C\CCCC(=O)O [PGJ2, 15-deoxy-Δ12,14-prostaglandin J2] | >15 | completely blocked |
| CCCCCC(O)/C=C/C=O (stereo not shown) [4-HNE, 4-Hydroxynonenal] | 1.78 |  |
| CCCCCCCCCCCCC/C=C/C=O [2-HD, 2-trans-hexadecenal] | 1.1 |  |
